Data reported in PubChem BioAssay AID1963439 (Molecular Pharmacology Branch, DTP, NCI, 2024).

Test system: NCI-H196 complex spheroids with HUVEC/MSC, growth % T/C
Assay: Anticancer human tumor NCI-H196 cell line growth inhibition [Asc];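 also: spheroids exposed to compound for 7 days before measurement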;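 as to viability, T/C: 100% = DMSO vehicle control wells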
Conditions: for IC50: curve of first compound; for viability, T/C: stronger effect = lower value
Description: Multicellular complex tumor spheroid response to apoptosis pathway targeting inhibitors Alrizomadlin, Pelcitoclax, and Dasminapant in combination with a variety of drugs and investigational agents in selected tumor cell lines
The MDM2 inhibitor alrizomadlin, the Bcl-2/Bcl-xL inhibitor pelcitoclax, and the IAPs inhibitor dasminapant were evaluated both individually and in combination with standard of care and investigational anticancer small molecules within a complex spheroid model of solid tumors. . Complex spheroids include a stromal component modeled by human endothelial cells (HUVEC) and fibroblasts modeled by human mesenchymal stem cells (MSCs). The concentration ranges selected for each drug and investigational agent were based upon clinically achievable concentrations if the clinical Cmax of the agent was known.
Compounds. The drugs and investigational agents: alrizomadlin (APG-115; NSC831270), pelcitoclax (APG-1252; NSC835773), dasminapant (APG-1387;NSC834197), TAK-243 (NSC785004), copanlisib (NSC809693), olaparib (NSC753686), talazoparib (NSC767125), cobimetinib (NSC 768068), eltanexor (KPT-8602, NSC 794443), abemaciclib (NSC 768073), sotorasib (NSC818433), adagrasib (NSC 831453), MRTX-1133 (NSC 836407), Iadademestat (ORY1001, NSC 806812), and RMC-4630 (NSC839698), were obtained from the NCI Developmental Therapeutics Program Chemical Repository. The FDA-approved anticancer drug set is available from the Developmental Therapeutics Program at https://dtp.cancer.gov/organization/dscb/obtaining/available plates.htm. […] The stock solutions were prepared in dimethyl sulfoxide (DMSO, Sigma-Aldrich, St. Louis, MO, cat. D2650) at 800-fold the tested concentration and stored at -70 degrees C prior to their use. All drugs and investigational agents were tested over a range starting from a high concentration at or near the clinical Cmax and decreasing in half-log increments. If the clinical Cmax for an agent had not been determined, the highest concentration tested was 10 microM.
The patient-derived cancer (PDC) cell lines include five colon adenocarcinomas: 186277-243-T-J2-PDC, 616215-338-R-J1-PDC, 439559-082-T-J2-PDC, 463943-066-T-J2-PDC, and 519858-162-T-J1-PDC; three pancreatic carcinomas: 323965-272-R-J2-PDC, 521955-158-R6-J3-PDC, and 521955-158-R2-J5-PDC; two uterine sarcomas: 327498-152-R-J2-PDC and 993429-296-R-J1-PDC; two rhabdomyosarcomas: 755483-174-R-J1-PDC and 772245-204-R-J1-PDC; two soft tissue sarcomas: 126254-015-R-J1-PDC and 494315-158-R-J1-PDC; two malignant fibrous histiocytomas: 317291-083-R-J1-PDC and 596521-263-R-J1-PDC; two breast carcinomas: 171881-019-R-J1-PDC and 885512-296-R-J2-PDC; and one ovarian carcinoma: 6556581-035-R-J-PDC were obtained from the NCI PDMR, (https://pdmr.cancer.gov). The established cell lines HSSY-2 synovial sarcoma (RRID:CVCL 8719), SYO-1 synovial sarcoma (RRID:CVCL_7146), MPNST malignant peripheral neural sheath tumor were obtained from the Sloan Kettering Institute. The following established cell lines were purchased from the American Type Culture Collection (ATCC, Manassas, VA), Sor the received from the NCI repository:, PANC-1 pancreatic carcinoma (CRL-1469, RRID:CVCL_0480), OVCAR-5 ovarian carcinoma (RRID:CVCL_1628), OVCAR-8 ovarian carcinoma (RRID:CVCL_1629), , MCF-7 breast carcinoma (CRL-12584, RRID:CVCL_0031), MDA-MB-231 breast carcinoma (CRL-12532, RRID:CVCL_0062), NCI-H1876 small cell lung carcinoma (CRL-5902, RRID:CVCL_1503), NCI-H510A small cell lung carcinoma (HTB-184, RRID:CVCL_1565), NCI-H1417 (CRL-5869, RRID:CVCL_1469), and NCI-H196 small cell lung carcinoma (CRL-5823, RRID:CVCL_1509). Dr. Peter Houghton (Greehey Children's Cancer Research Institute, University of Texas Health Science Center, San Antonio, TX) provided Rh-18 rhabdomyosarcoma (RRID:CVCL_1659). Pooled donor human umbilical vein endothelial cells (HUVEC, Lonza, cat. CC-2519) and human mesenchymal stem cells (hMSC, Lonza, cat. PT-2501) were purchased from Lonza (Walkersville, MD).
Cell Culture. […]

## NC(=O)C(=Cn1cnc(-c2cc(C(F)(F)F)cc(C(F)(F)F)c2)n1)c1cncnc1 + CNC(C)C(=O)NC1CN(S(=O)(=O)c2cccc(S(=O)(=O)N3CCC4CCC(C(=O)NC(c5ccccc5)c5ccccc5)N4C(=O)C(NC(=O)C(C)NC)C3)c2)CCC2CCC(C(=O)NC(c3ccccc3)c3ccccc3)N2C1=O
Second compound 0.01 µM
  IC50: < 0.949 nM
Second compound 0.0316 µM
  IC50: < 0.949 nM
Second compound 0.1 µM
  IC50: < 0.949 nM
Second compound 0.316 µM
  IC50: < 0.949 nM
Second compound 1 µM
  IC50: < 0.949 nM
Second compound 0.01 µM, first compound 0.000949 µM
  viability, T/C: 9.08%
Second compound 0.01 µM, first compound 0.003 µM
  viability, T/C: 6.89%
Second compound 0.01 µM, first compound 0.00949 µM
  viability, T/C: 9.23%
Second compound 0.01 µM, first compound 0.03 µM
  viability, T/C: 5%
Second compound 0.01 µM, first compound 0.0949 µM
  viability, T/C: 6.27%
Second compound 0.01 µM, first compound 0.3 µM
  viability, T/C: 3.41%
Second compound 0.0316 µM, first compound 0.000949 µM
  viability, T/C: 5.94%
Second compound 0.0316 µM, first compound 0.003 µM
  viability, T/C: 4.91%
Second compound 0.0316 µM, first compound 0.00949 µM
  viability, T/C: 5.48%
Second compound 0.0316 µM, first compound 0.03 µM
  viability, T/C: 5.12%
Second compound 0.0316 µM, first compound 0.0949 µM
  viability, T/C: 4.08%
Second compound 0.0316 µM, first compound 0.3 µM
  viability, T/C: 1.99%
Second compound 0.1 µM, first compound 0.000949 µM
  viability, T/C: 3.66%
Second compound 0.1 µM, first compound 0.003 µM
  viability, T/C: 3.77%
Second compound 0.1 µM, first compound 0.00949 µM
  viability, T/C: 3.89%
Second compound 0.1 µM, first compound 0.03 µM
  viability, T/C: 4.03%
Second compound 0.1 µM, first compound 0.0949 µM
  viability, T/C: 3.01%
Second compound 0.1 µM, first compound 0.3 µM
  viability, T/C: 1.56%
Second compound 0.316 µM, first compound 0.000949 µM
  viability, T/C: 3.76%
Second compound 0.316 µM, first compound 0.003 µM
  viability, T/C: 2.6%
Second compound 0.316 µM, first compound 0.00949 µM
  viability, T/C: 3.46%
Second compound 0.316 µM, first compound 0.03 µM
  viability, T/C: 3.21%
Second compound 0.316 µM, first compound 0.0949 µM
  viability, T/C: 1.59%
Second compound 0.316 µM, first compound 0.3 µM
  viability, T/C: 1.68%
Second compound 1 µM, first compound 0.000949 µM
  viability, T/C: 2.91%
Second compound 1 µM, first compound 0.003 µM
  viability, T/C: 3.81%
Second compound 1 µM, first compound 0.00949 µM
  viability, T/C: 3.53%
Second compound 1 µM, first compound 0.03 µM
  viability, T/C: 5.05%
Second compound 1 µM, first compound 0.0949 µM
  viability, T/C: 2.15%
Second compound 1 µM, first compound 0.3 µM
  viability, T/C: 1.55%

## NC1CCC(NC2CC2c2ccccc2)CC1 (stereo not given) + CNC(C)C(=O)NC1CN(S(=O)(=O)c2cccc(S(=O)(=O)N3CCC4CCC(C(=O)NC(c5ccccc5)c5ccccc5)N4C(=O)C(NC(=O)C(C)NC)C3)c2)CCC2CCC(C(=O)NC(c3ccccc3)c3ccccc3)N2C1=O
Second compound 0.01 µM
  IC50: < 0.316 nM
Second compound 0.0316 µM
  IC50: < 0.316 nM
Second compound 0.1 µM
  IC50: < 0.316 nM
Second compound 0.316 µM
  IC50: < 0.316 nM
Second compound 1 µM
  IC50: < 0.316 nM
Second compound 0.01 µM, first compound 0.000316 µM
  viability, T/C: 4.85%
Second compound 0.01 µM, first compound 0.001 µM
  viability, T/C: 7.42%
Second compound 0.01 µM, first compound 0.00316 µM
  viability, T/C: 7.08%
Second compound 0.01 µM, first compound 0.01 µM
  viability, T/C: 4.94%
Second compound 0.01 µM, first compound 0.0316 µM
  viability, T/C: 4.47%
Second compound 0.01 µM, first compound 0.1 µM
  viability, T/C: 5.83%
Second compound 0.0316 µM, first compound 0.000316 µM
  viability, T/C: 3.28%
Second compound 0.0316 µM, first compound 0.001 µM
  viability, T/C: 3.9%
Second compound 0.0316 µM, first compound 0.00316 µM
  viability, T/C: 6.09%
Second compound 0.0316 µM, first compound 0.01 µM
  viability, T/C: 4.65%
Second compound 0.0316 µM, first compound 0.0316 µM
  viability, T/C: 4.22%
Second compound 0.0316 µM, first compound 0.1 µM
  viability, T/C: 4.12%
Second compound 0.1 µM, first compound 0.000316 µM
  viability, T/C: 3.22%
Second compound 0.1 µM, first compound 0.001 µM
  viability, T/C: 3.76%
Second compound 0.1 µM, first compound 0.00316 µM
  viability, T/C: 3.15%
Second compound 0.1 µM, first compound 0.01 µM
  viability, T/C: 3.8%
Second compound 0.1 µM, first compound 0.0316 µM
  viability, T/C: 2.91%
Second compound 0.1 µM, first compound 0.1 µM
  viability, T/C: 5.63%
Second compound 0.316 µM, first compound 0.000316 µM
  viability, T/C: 3.14%
Second compound 0.316 µM, first compound 0.001 µM
  viability, T/C: 3.25%
Second compound 0.316 µM, first compound 0.00316 µM
  viability, T/C: 3.34%
Second compound 0.316 µM, first compound 0.01 µM
  viability, T/C: 2.68%
Second compound 0.316 µM, first compound 0.0316 µM
  viability, T/C: 2.82%
Second compound 0.316 µM, first compound 0.1 µM
  viability, T/C: 2.95%
Second compound 1 µM, first compound 0.000316 µM
  viability, T/C: 3.04%
Second compound 1 µM, first compound 0.001 µM
  viability, T/C: 4.43%
Second compound 1 µM, first compound 0.00316 µM
  viability, T/C: 3.1%
Second compound 1 µM, first compound 0.01 µM
  viability, T/C: 3.47%
Second compound 1 µM, first compound 0.0316 µM
  viability, T/C: 3.24%
Second compound 1 µM, first compound 0.1 µM
  viability, T/C: 2.28%
